Paper PMC7064328 (Environmental Health Perspectives, 2020)

Test system: placenta
Assay: Placental histopathology
Type: in vivo, mouse (CD-1)
Settings: for Lowest dose tested resulting in adverse placental pathology: this study
Description: Dam livers, kidneys, and placentas were trimmed and embedded by the NIEHS Mouse Embryo Phenotyping Core. Tissues collected at necropsy were fixed in 4% PFA for 72 h and paraffin embedded, and 5-μm sections were prepared and stained with hematoxylin and eosin (H&E). Pathology was evaluated and a pathology review conducted by S.A.E. Diplomate American College of Veterinary Pathologists (DACVP). Pathology reviews were conducted as an informed approach analysis [e.g., nonblinded analysis; see Sills et al. ([2019])]. Select tissue slides were scanned using the AT2 Scanner (Aperio). Images were then captured for publication using the ImageScope software; version 12.3.0.5056 (Aperio). Serum and urine obtained from dams in Block 2 were analyzed using the AU480 clinical chemistry analyzer (Beckman Coulter Inc.). Reagents and calibration standards used to measure alkaline phosphatase (ALP), alanine aminotransferase (ALT), aspartate aminotransferase (AST), blood urea nitrogen (BUN), serum creatinine, urine creatinine, glucose (Glu), total protein (TP), triglyceride (Trig), high-density lipoprotein (HDL), cholesterol (Chol), and albumin (ALB) were purchased from Beckman Coulter Inc. Reagents for sorbitol dehydrogenase (SDH), total bile acid (TBA), and micro-TP were purchased from Sekisui Diagnostics. The reagent used to measure low-density lipoprotein (LDL) was purchased form Diazyme Laboratories.
Histopathological lesions of evaluated placenta were evaluated using two statistical approaches. The first approach assumed the absence of litter effects and considered each placenta evaluated within a treatment group to be a totally independent observation, regardless of its litter of origin. […] The second approach considered the litter as the biological unit and compared the relative incidence of placental lesions [e.g., percent within normal limits (WNL)] to adjust for differences in the total number of observations across litters within and between treatment groups. […] Both approaches were subjected to simultaneous tests for general linear hypotheses to correct for multiple comparisons using Tukey contrasts in the package multcomp ([Hothorn et al. 2009]).

N.O=C(O)C(F)(OC(F)(F)C(F)(F)C(F)(F)F)C(F)(F)F (centres unmarked) [GenX, ammonium 2,3,3,3-tetrafluoro-2-(heptafluoropropoxy)propanoate]
Early fibrin clot: No. (E11.5, 2 mg/kg/d): 1 | Labyrinth atrophy: % (E11.5, 2 mg/kg/d): 0% | Labyrinth atrophy: No. (E11.5, 2 mg/kg/d): 0 | Labyrinth congestion: % (E11.5, 2 mg/kg/d): 0% | Labyrinth congestion: No. (E11.5, 2 mg/kg/d): 0 | Labyrinth necrosis: % (E11.5, 2 mg/kg/d): 0% | Labyrinth necrosis: No. (E11.5, 2 mg/kg/d): 0 | Mean WNL per litter (%) (E11.5, 2 mg/kg/d): 95.6% | Mean WNL ± SD per litter (E11.5, 2 mg/kg/d): 8.2 ± 2.8 | Mean abnormal per litter (%) (E11.5, 2 mg/kg/d): 4.4% | Mean abnormal ± SD per litter (E11.5, 2 mg/kg/d): 0.4 ± 0.9 | Other placental lesions: % (E11.5, 2 mg/kg/d): 2.3% | Other placental lesions: No. (E11.5, 2 mg/kg/d): 1 | Placental nodule: % (E11.5, 2 mg/kg/d): 0% | Placental nodule: No. (E11.5, 2 mg/kg/d): 0 | Placentas WNL: % (E11.5, 2 mg/kg/d): 95.3% | Placentas WNL: No. (E11.5, 2 mg/kg/d): 41 | Placentas abnormal: % (E11.5, 2 mg/kg/d): 4.7% | Placentas abnormal: No. (E11.5, 2 mg/kg/d): 2 | Early fibrin clot: % (E11.5, 10 mg/kg/d): 0% | Early fibrin clot: No. (E11.5, 10 mg/kg/d): 0 | Labyrinth atrophy: % (E11.5, 10 mg/kg/d): 0% | Labyrinth atrophy: No. (E11.5, 10 mg/kg/d): 0 | Labyrinth congestion: % (E11.5, 10 mg/kg/d): 0% | Labyrinth congestion: No. (E11.5, 10 mg/kg/d): 0 | Labyrinth necrosis: % (E11.5, 10 mg/kg/d): 0% | Labyrinth necrosis: No. (E11.5, 10 mg/kg/d): 0 | Mean WNL per litter (%) (E11.5, 10 mg/kg/d): 97.1% | Mean WNL ± SD per litter (E11.5, 10 mg/kg/d): 6.0 ± 3.1 | Mean abnormal per litter (%) (E11.5, 10 mg/kg/d): 0% | Mean abnormal ± SD per litter (E11.5, 10 mg/kg/d): 0 ± 0.0 | Other placental lesions: % (E11.5, 10 mg/kg/d): 0% | Other placental lesions: No. (E11.5, 10 mg/kg/d): 0 | Placental nodule: % (E11.5, 10 mg/kg/d): 0% | Placental nodule: No. (E11.5, 10 mg/kg/d): 0 | Placentas WNL: % (E11.5, 10 mg/kg/d): 100% | Placentas WNL: No. (E11.5, 10 mg/kg/d): 30 | Placentas abnormal: % (E11.5, 10 mg/kg/d): 0.0% | Placentas abnormal: No. (E11.5, 10 mg/kg/d): 0 | Early fibrin clot: % (E17.5, 2 mg/kg/d): 3.2% | Early fibrin clot: No. (E17.5, 2 mg/kg/d): 1 | Labyrinth atrophy: % (E17.5, 2 mg/kg/d): 48.4% | Labyrinth atrophy: No. (E17.5, 2 mg/kg/d): 15 | Labyrinth congestion: % (E17.5, 2 mg/kg/d): 3.2% | Labyrinth congestion: No. (E17.5, 2 mg/kg/d): 1 | Labyrinth necrosis: % (E17.5, 2 mg/kg/d): 0% | Labyrinth necrosis: No. (E17.5, 2 mg/kg/d): 0 | Mean WNL per litter (%) (E17.5, 2 mg/kg/d): 51.7% | Mean WNL ± SD per litter (E17.5, 2 mg/kg/d): 2.6 ± 2.8 | Mean abnormal per litter (%) (E17.5, 2 mg/kg/d): 48.3% | Mean abnormal ± SD per litter (E17.5, 2 mg/kg/d): 3.6 ± 3.6 | Other placental lesions: % (E17.5, 2 mg/kg/d): 0% | Other placental lesions: No. (E17.5, 2 mg/kg/d): 0 | Placental nodule: % (E17.5, 2 mg/kg/d): 3.2% | Placental nodule: No. (E17.5, 2 mg/kg/d): 1 | Placentas WNL: % (E17.5, 2 mg/kg/d): 41.9% | Placentas WNL: No. (E17.5, 2 mg/kg/d): 13 | Placentas abnormal: % (E17.5, 2 mg/kg/d): 58.1% | Placentas abnormal: No. (E17.5, 2 mg/kg/d): 18 | Early fibrin clot: % (E17.5, 10 mg/kg/d): 11.4% | Early fibrin clot: No. (E17.5, 10 mg/kg/d): 4 | Labyrinth atrophy: % (E17.5, 10 mg/kg/d): 45.7% | Labyrinth atrophy: No. (E17.5, 10 mg/kg/d): 16 | Labyrinth congestion: % (E17.5, 10 mg/kg/d): 22.9% | Labyrinth congestion: No. (E17.5, 10 mg/kg/d): 8 | Labyrinth necrosis: % (E17.5, 10 mg/kg/d): 2.9% | Labyrinth necrosis: No. (E17.5, 10 mg/kg/d): 1 | Mean WNL per litter (%) (E17.5, 10 mg/kg/d): 12.0% | Mean WNL ± SD per litter (E17.5, 10 mg/kg/d): 1.2 ± 2.7 | Mean abnormal per litter (%) (E17.5, 10 mg/kg/d): 88.0% | Mean abnormal ± SD per litter (E17.5, 10 mg/kg/d): 5.8 ± 3.0 | Other placental lesions: % (E17.5, 10 mg/kg/d): 0% | Other placental lesions: No. (E17.5, 10 mg/kg/d): 0 | Placental nodule: % (E17.5, 10 mg/kg/d): 0% | Placental nodule: No. (E17.5, 10 mg/kg/d): 0 | Placentas WNL: % (E17.5, 10 mg/kg/d): 17.1% | Placentas WNL: No. (E17.5, 10 mg/kg/d): 6 | Placentas abnormal: % (E17.5, 10 mg/kg/d): 82.9% | Placentas abnormal: No. (E17.5, 10 mg/kg/d): 29 | Lowest dose tested resulting in adverse placental pathology: 2 mg/kg/d

O=C(O)C(F)(F)C(F)(F)C(F)(F)C(F)(F)C(F)(F)C(F)(F)C(F)(F)F [PFOA, Perfluorooctanoic acid]
Early fibrin clot: % (E11.5, 1 mg/kg/d): 0% | Early fibrin clot: No. (E11.5, 1 mg/kg/d): 0 | Labyrinth atrophy: % (E11.5, 1 mg/kg/d): 0% | Labyrinth atrophy: No. (E11.5, 1 mg/kg/d): 0 | Labyrinth congestion: % (E11.5, 1 mg/kg/d): 0% | Labyrinth congestion: No. (E11.5, 1 mg/kg/d): 0 | Labyrinth necrosis: % (E11.5, 1 mg/kg/d): 0% | Labyrinth necrosis: No. (E11.5, 1 mg/kg/d): 0 | Mean WNL per litter (%) (E11.5, 1 mg/kg/d): 98.0% | Mean WNL ± SD per litter (E11.5, 1 mg/kg/d): 6.4 ± 1.9 | Mean abnormal per litter (%) (E11.5, 1 mg/kg/d): 2.0% | Mean abnormal ± SD per litter (E11.5, 1 mg/kg/d): 0.2 ± 0.4 | Other placental lesions: % (E11.5, 1 mg/kg/d): 3.0% | Other placental lesions: No. (E11.5, 1 mg/kg/d): 1 | Placental nodule: % (E11.5, 1 mg/kg/d): 0% | Placental nodule: No. (E11.5, 1 mg/kg/d): 0 | Placentas WNL: % (E11.5, 1 mg/kg/d): 97.0% | Placentas WNL: No. (E11.5, 1 mg/kg/d): 32 | Placentas abnormal: % (E11.5, 1 mg/kg/d): 3.0% | Placentas abnormal: No. (E11.5, 1 mg/kg/d): 4 | Early fibrin clot: % (E11.5, 5 mg/kg/d): 0% | Early fibrin clot: No. (E11.5, 5 mg/kg/d): 0 | Labyrinth atrophy: % (E11.5, 5 mg/kg/d): 8.3% | Labyrinth atrophy: No. (E11.5, 5 mg/kg/d): 3 | Labyrinth congestion: % (E11.5, 5 mg/kg/d): 0% | Labyrinth congestion: No. (E11.5, 5 mg/kg/d): 0 | Labyrinth necrosis: % (E11.5, 5 mg/kg/d): 2.7% | Labyrinth necrosis: No. (E11.5, 5 mg/kg/d): 1 | Mean WNL per litter (%) (E11.5, 5 mg/kg/d): 88.3% | Mean WNL ± SD per litter (E11.5, 5 mg/kg/d): 6.4 ± 1.7 | Mean abnormal per litter (%) (E11.5, 5 mg/kg/d): 11.7% | Mean abnormal ± SD per litter (E11.5, 5 mg/kg/d): 1.0 ± 1.4 | Other placental lesions: % (E11.5, 5 mg/kg/d): 0% | Other placental lesions: No. (E11.5, 5 mg/kg/d): 0 | Placental nodule: % (E11.5, 5 mg/kg/d): 0% | Placental nodule: No. (E11.5, 5 mg/kg/d): 0 | Placentas WNL: % (E11.5, 5 mg/kg/d): 88.9% | Placentas WNL: No. (E11.5, 5 mg/kg/d): 32 | Placentas abnormal: % (E11.5, 5 mg/kg/d): 11.1% | Placentas abnormal: No. (E11.5, 5 mg/kg/d): 4 | Early fibrin clot: % (E17.5, 1 mg/kg/d): 0% | Early fibrin clot: No. (E17.5, 1 mg/kg/d): 0 | Labyrinth atrophy: % (E17.5, 1 mg/kg/d): 0% | Labyrinth atrophy: No. (E17.5, 1 mg/kg/d): 0 | Labyrinth congestion: % (E17.5, 1 mg/kg/d): 0% | Labyrinth congestion: No. (E17.5, 1 mg/kg/d): 0 | Labyrinth necrosis: % (E17.5, 1 mg/kg/d): 3.1% | Labyrinth necrosis: No. (E17.5, 1 mg/kg/d): 1 | Mean WNL per litter (%) (E17.5, 1 mg/kg/d): 91.4% | Mean WNL ± SD per litter (E17.5, 1 mg/kg/d): 5.8 ± 1.3 | Mean abnormal per litter (%) (E17.5, 1 mg/kg/d): 8.6% | Mean abnormal ± SD per litter (E17.5, 1 mg/kg/d): 0.6 ± 0.9 | Other placental lesions: % (E17.5, 1 mg/kg/d): 0% | Other placental lesions: No. (E17.5, 1 mg/kg/d): 0 | Placental nodule: % (E17.5, 1 mg/kg/d): 6.3% | Placental nodule: No. (E17.5, 1 mg/kg/d): 2 | Placentas WNL: % (E17.5, 1 mg/kg/d): 90.6% | Placentas WNL: No. (E17.5, 1 mg/kg/d): 29 | Placentas abnormal: % (E17.5, 1 mg/kg/d): 9.4% | Placentas abnormal: No. (E17.5, 1 mg/kg/d): 3 | Early fibrin clot: % (E17.5, 5 mg/kg/d): 2.5% | Early fibrin clot: No. (E17.5, 5 mg/kg/d): 1 | Labyrinth atrophy: % (E17.5, 5 mg/kg/d): 7.5% | Labyrinth atrophy: No. (E17.5, 5 mg/kg/d): 3 | Labyrinth congestion: % (E17.5, 5 mg/kg/d): 57.5% | Labyrinth congestion: No. (E17.5, 5 mg/kg/d): 23 | Labyrinth necrosis: % (E17.5, 5 mg/kg/d): 0% | Labyrinth necrosis: No. (E17.5, 5 mg/kg/d): 0 | Mean WNL per litter (%) (E17.5, 5 mg/kg/d): 38.1% | Mean WNL ± SD per litter (E17.5, 5 mg/kg/d): 2.2 ± 2.7 | Mean abnormal per litter (%) (E17.5, 5 mg/kg/d): 61.9% | Mean abnormal ± SD per litter (E17.5, 5 mg/kg/d): 4.5 ± 3.8 | Other placental lesions: % (E17.5, 5 mg/kg/d): 0% | Other placental lesions: No. (E17.5, 5 mg/kg/d): 0 | Placental nodule: % (E17.5, 5 mg/kg/d): 0% | Placental nodule: No. (E17.5, 5 mg/kg/d): 0 | Placentas WNL: % (E17.5, 5 mg/kg/d): 32.5% | Placentas WNL: No. (E17.5, 5 mg/kg/d): 13 | Placentas abnormal: % (E17.5, 5 mg/kg/d): 67.5% | Placentas abnormal: No. (E17.5, 5 mg/kg/d): 27 | Lowest dose tested resulting in adverse placental pathology: 5 mg/kg/d
